Experimental data reported in EP4458977A1, “SELF-ASSEMBLING PEPTIDE AMPHIPHILES AS RETROVIRAL TRANSDUCTION ENHANCERS” (Max-Planck-Gesellschaft zur Förderung der Wissenschaften …, priority 2023, dated 2024).
Entries after “also recorded” stand apart in the source; their conditions may differ. Where a SMILES comes first, the peptide text is derived from it. Where no end group is shown, it is not given here. [ ]: non-standard residue; d: D form. The star is where a group is joined. Palmitoyl = CCCCCCCCCCCCCCCC(=O)*

What was measured:
[1] = Fluorescence microscopy of ThT-stained fibrils (µm-sized aggregates); format: physicochemical; settings: 1 mg/mL stained with 50 µM ThT
Experimental: (§1) Transmission electron microscopy (TEM) measurements, Thioflavin (ThT), zeta-potential measurements for fibril characterization were prepared and conducted according to prior art procedures. […] Fibrils were defined as distinct, if no visible structures could be identified in fluorescence and brightfield microscopy.
Fluorescence microscopy: 1 µL Fibrils (1 mg mL^-1) were stained with 9 µL, 50 µM ThT. 10 µL of the stained fibrils (0.1 mg mL^-1) were placed on a microscopy glass. Fluorescence microscopy measurements were performed on a Leica DMi8 microscope with 10x air objective and equipped with a Leica MC170 HD camera with a filter setting λem = 527/30 nm upon excitation at λex = 480/40 nm) and processed with the Leica LASX software.

[2] = TEM of peptide assemblies (fibril formation / assembly); format: physicochemical; settings: for TEM morphology (in words): 1 mg/mL in PBS; for Assembly without hydrophob residue: corresponding peptide without hydrophobic moiety; for Assembly: peptide amphiphile
Experimental: The peptides were predissolved in DMSO to a concentration of 10 mg/mL. The fibril formation was induced by further diluting the solution to a final incubation concentration of 650 µM or 1 mg/mL in PBS as indicated in the text and incubated for 1 d (1 day) at rt (room temperature, 20 °C - 25 °C). Other concentrations as described herein were achieved by further dilution of preformed fibrils.
as §1

[3] = test system: HIV-1; settings: for Infectivity enhancing N fold at 1.3 µM: relative to virus only; for enhancement of HIV-1 infection / transduction (in words): 6.5 µM, 1.3 µM, 0.26 µM;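 as to all read-outs here: TZM-bl reporter cells exposed to HIV-1 with peptide fibrils, infection read out as β-galactosidase luminescence, compared with virus alone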
Experimental: HIV-1 Infection Assay with TZM-bl cells: The effect of peptide fibrils on HIV-1 infection was studied via a luminescence assay for β-galactosidase, which was reported by TZM-bl cells upon infection. The HIV-1 infection assay was conducted in three technical replicates and repeated in three independent experiments unless stated otherwise.

[4] = test system: HeLa cells; test: Confocal laser scanning microscopy and degradation study with PA library and HeLa cells; format: cell-based; settings: for association with cellular membranes: 2 µg added to 20.000 HeLa cells, 30 min; for degradability (in words) / Degradability / % (rel. to initial particles > 10 µm^2): HeLa cells; for degradability (in words): 3 days; for Degradability / % (rel. to initial particles > 10 µm^2): 3 d relative to 30 min; for aggregate number increases / aggregate number decreases / degraded in presence of HeLa cells within 3 days: d3 relative to d0
Experimental: In general, the procedure for determine whether a PA is degraded or not, is conducted by confocal laser scanning microscopy of Proteostat stained PAs which are added to Hela cells (2 µg peptide added to 20.000 cells). Microscopy is conducted at day 0 (d0, after 30 min of incubation) and at day 3 (d3, after 72 h of incubation). The number of aggregates >10 µm^2 is counted via 3D object counter in imaged in an area of 1008 µm × 1008 µm.
A PA is considered to be degradable if the number and the size of aggregates are reduced after 3 days. The efficiency is determined by the percentual degradation (aggregate number at d3 / aggregate number at d0). For the number of aggregation three technical replicates were evaluated for each sample. A large deviation represents a nonhomogeneous spatial distribution of aggregates.
Confocal laser scanning microscopy and degradation study with PA library and HeLa cells: Confocal laser scanning microscopy studies were performed for the visualization of the cell-PA interaction. HeLa cells were seeded one day prior to conducting the assay (20,000/well) in an 8-well IBIDI slide. […] The nucleus of the HeLa cells was stained with Hoechst 33342 (NucBlue™, Thermo Fisher Scientific). The peptide solution mixture was transferred to the HeLa cells and incubated for 30 min at 37°C before washing three times with PBS. […] For the evaluation of aggregate degradation, the samples were further incubated at 37°C for 3 d and analyzed without any additional washing step. […] The number of aggregates were determined by counting aggregates larger than the threshold 10 µm^2 in an area of 1008 × 1008 µm and repeated in three technical triplicates.

[5] = ATR-FT-IR determination of β-sheet content; format: physicochemical; settings: 1 mg/mL in PBS lyophilized; integral at 1630 cm^-1 relative to 1650-1700 cm^-1
Experimental: ATR-FT-IR: ATR-IR spectra acquisition and the calculation of β-sheet content were conducted according prior art procedures. Briefly, FT-IR spectra of solid samples were recorded after lyophilization of fibril solutions using a Bruker Tensor II spectrometer equipped with a diamond crystal as ATR element with a spectral resolution of 2 cm^-1, each spectrum was an average of 64 scans. The data was processed with Origin software. β-sheet amount was determined by calculating the integral of the peak at 1630 cm-1 (β-sheet) relative to the integral between 1650-1700 cm-1 (native structure) from the 2nd derivative of the FT-IR spectra.

| Compound | fluorescent, µm-sized aggregates (ThT staining) [1] | TEM morphology (in words) [2] | Assembly without hydrophob residue [2] | Assembly [2] | enhances infectivity at 1.3 µM concentration, times more efficient compared to virus only infection [3] | infectivity enhancement at 1.3 µM concentration compared to virus only infection (in words) [3] | Infectivity enhancing N fold at 1.3 µM [3] | association with cellular membranes [4] | degradability (in words) [4] | Degradability / % (rel. to initial particles > 10 µm^2) [4] | aggregate number increases [4] | β-sheet amount [5] | enhancement of HIV-1 infection / transduction (in words) [3] | TEM morphology (in words) ([2]; listed as NFYLQVNKINK) | aggregate number decreases / degraded in presence of HeLa cells within 3 days [4] |
| --- | --- | --- | --- | --- | --- | --- | --- | --- | --- | --- | --- | --- | --- | --- | --- |
| CCCCCCCCCCCCCCCC(=O)N[C@@H](CCCCN)C(=O)N[C@@H](Cc1ccc(O)cc1)C(=O)N[C@H](C(=O)N[C@@H](Cc1c[nH]cn1)C(=O)N[C@@H](CCC(N)=O)C(=O)N[C@@H](CC(N)=O)C(=O)N[C@@H](Cc1ccc(O)cc1)C(=O)N[C@H](C(=O)N[C@@H](CCCCN)C(=O)N[C@@H](C)C(=O)N[C@@H](CC(C)C)C(=O)N[C@@H](C)C(=O)NCC(=O)N[C@@H](CCCCN)C(=O)N[C@@H](CC(C)C)C(=O)N[C@H](C(N)=O)C(C)C)[C@@H](C)O)[C@@H](C)CC [Pat26] (Palmitoyl-KYIHQNYTKALAGKLV-NH2) | fluorescent, µm-sized aggregates | fibrillar morphologies | No | Yes | 5 times | does not enhance infectivity | 5±2 N fold | association with cellular membranes | cannot be degraded; also recorded: not efficiently degradable; also recorded: non-degradable PA | -110% | 110% | 51% | – | – | – |
| CCCCCCCCCCCCCCCC(=O)N[C@@H](C(=O)N[C@@H](C(=O)N[C@@H](C(=O)N[C@H](C)C(=O)N[C@H](C)C(=O)N[C@H](C)C(=O)N[C@H](CCCCN)C(=O)N[C@H](CCCCN)C(=O)N[C@H](CCCCN)C(N)=O)C(C)C)C(C)C)C(C)C [Pat14, C16-vvvaaakkk-NH2] (Palmitoyl-[dV][dV][dV][dA][dA][dA][dK][dK][dK]-NH2) | fluorescent, µm-sized aggregates | fibrillar morphologies | No | Yes | 7 times | – | 7±1 N fold | association with cellular membranes | is not degraded; also recorded: cannot be degraded; also recorded: non-degradable PA | -116% | 116% | 49% | – | – | – |
| CCCCCCCCCCCCCCCC(=O)N[C@@H](C)C(=O)N[C@@H](CCC(N)=O)C(=O)N[C@@H](C)C(=O)N[C@@H](CCCCN)C(=O)N[C@@H](C)C(=O)N[C@@H](CCCCN)C(N)=O [Pat16, C16-AQAKAK-NH2] (Palmitoyl-AQAKAK-NH2) | fluorescent, µm-sized aggregates | fibrillar morphologies | No | Yes | 4 times | – | 4±1 N fold | – | cannot be degraded; also recorded: non-degradable PA | -83% | 83% | 50% | do not efficiently enhance infectivity | – | – |
| NFYLQVNKINK-NH2 [Pat46] | fluorescent, µm-sized aggregates | fibrillar morphologies | – | – | – | – | – | association with cellular membranes | not efficiently degradable; also recorded: non-degradable PA | – | – | 49% | potent enhancers of HIV-1 infection | unexpectedly forming fibrils by themselves | stays also similar |
| C16-disulfide-CVVVAAAKKK-NH2 (not fully specified (residue 1); printed as C16-disulfide-CVVVAAAKKK-NH2) [Pat2] | fluorescent, µm-sized aggregates | fibrillar morphologies | No | Yes | 4 times | – | 4±2 N fold | no visible association with cellular membranes | – | – | – | 57% | weak enhancers of HIV-1 infection | – | – |
| CCCCCCCCCCCCCCCC(=O)N[C@@H](C)C(=O)N[C@H](C(=O)N[C@@H](C)C(=O)N[C@@H](CCCCN)C(=O)N[C@@H](CCCCN)C(=O)N[C@@H](CCCCN)C(N)=O)C(C)C [Pat21, C16-AVAKKK-NH2] (Palmitoyl-AVAKKK-NH2) | fluorescent, µm-sized aggregates | fibrillar morphologies | No | Yes | 2 times | – | 2±0 N fold | association with cellular membranes | can be degraded; also recorded: not efficiently degradable; also recorded: degradable PA | 68% | – | 45% | no infectivity enhancement can be observed | – | 84% |
| CCCCCCCCCCCCCCCC(=O)N[C@@H](CCCCN)C(=O)N[C@H](C(=O)N[C@H](C(=O)N[C@@H](CO)C(=O)N[C@@H](Cc1ccccc1)C(=O)N[C@@H](CCCCN)C(N)=O)[C@@H](C)CC)[C@@H](C)CC [Pat32, C16-KIISFK-NH2] (Palmitoyl-KIISFK-NH2) | fluorescent, µm-sized aggregates | fibrillar morphologies | No | Yes | – | does not enhances infectivity | 2±1 N fold | association with cellular membranes | cannot be degraded; also recorded: not efficiently degradable; also recorded: non-degradable PA | -84% | 84% | 46% | – | – | – |
